Test systems include 786-0 renal; CCRF-CEM leukemia; DU-145 prostate; EKVX NSCLC; IGROV1 ovarian; NCI-H23 lung; NCI-H460 lung; OVCAR-3 ovarian; RPMI-8226 leukemia; SK-MEL-5 melanoma.
What all share (assay): DTP human tumour cell line panel, 48 h

Several values for one entry are separate records, joined by “and”; a condition that tells them apart may be missing. Equal entries are not always repeated.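 Method: 48-hour compound exposure of cells in 96-well plates, five concentrations, linear interpolation of endpoints. GI50 is the concentration that inhibits growth by half. TGI marks complete inhibition of growth.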 Bounds are passed on as bounds.

Experimental findings from PubChem BioAssay (NCI) are described below.

Take `COc1cnc2c(c1)C(=O)c1c-2n(CCCNC2=NCCS2)c(=O)c2cc(F)ccc12`: the GI50 with 786-0 renal is 0.271 µM; in the test on CCRF-CEM leukemia, 0.0402 µM; in the test on DU-145 prostate, 0.144 µM; in the test on EKVX NSCLC it was 0.897 µM; with IGROV1 ovarian, 0.434 µM; with NCI-H23 lung, 0.22 µM. Further, the GI50 in the test with NCI-H460 lung was 0.0356 µM; in the test on OVCAR-3 ovarian it was 0.567 µM; in the test on RPMI-8226 leukemia it was 0.0702 µM; with SK-MEL-5 melanoma, 0.342 µM. The TGI worked out at 1.31 µM with 786-0 renal; 5.49 µM in the test on CCRF-CEM leukemia; 1.63 µM with DU-145 prostate; 24.5 µM with EKVX NSCLC; 15.5 µM with IGROV1 ovarian; 1.66 µM in the test with NCI-H23 lung. The TGI with NCI-H460 lung came out at 1.11 µM; in the test on OVCAR-3 ovarian, 2.27 µM; in the test with RPMI-8226 leukemia, 1.21 µM; with SK-MEL-5 melanoma, 1.44 µM.

Regarding `Cn1cc(/C=C\[N+](=O)[O-])c2ccccc21`, the GI50 was more than 100 µM with 786-0 renal; 25.2 µM in the test on CCRF-CEM leukemia; 29.7 µM with DU-145 prostate; more than 100 µM with EKVX NSCLC; 49.2 µM in the test on IGROV1 ovarian; 74.7 µM with NCI-H23 lung. In addition, the GI50 was 38.6 µM with NCI-H460 lung, 28.1 µM in the test on OVCAR-3 ovarian, 16.1 µM in the test with RPMI-8226 leukemia and 14.8 µM with SK-MEL-5 melanoma. The TGI in the test on 786-0 renal is more than 100 µM; in the test on CCRF-CEM leukemia, more than 100 µM; with DU-145 prostate, 81.7 µM; in the test on EKVX NSCLC, more than 100 µM; in the test with IGROV1 ovarian it was more than 100 µM; in the test with NCI-H23 lung, more than 100 µM. Further, the concentration for total growth inhibition (TGI) was more than 100 µM in the test on NCI-H460 lung, more than 100 µM in the test on OVCAR-3 ovarian, 53.4 µM with RPMI-8226 leukemia and 31.6 µM in the test on SK-MEL-5 melanoma.

In the case of `CO[C@H]1C[C@@H]2CC[C@@H](C)[C@@](O)(O2)C(=O)C(=O)N2CCCC[C@H]2C(=O)O[C@H]([C@H](C)C[C@@H]2CC[C@@H](OC(=O)C(C)(CO)CO)[C@H](OC)C2)CC(=O)[C@H](C)/C=C(\C)[C@@H](O)[C@@H](OC)C(=O)[C@H](C)C[C@H](C)\C=C/C=C/C=C/1C`, the GI50 with 786-0 renal was 0.0149 µM; with CCRF-CEM leukemia it was 0.0368 µM; in the test with DU-145 prostate, 0.045 µM; in the test on EKVX NSCLC it was 0.00167 µM; in the test on IGROV1 ovarian, less than 0.001 µM; in the test on NCI-H23 lung, 0.0866 µM. The GI50 in the test on NCI-H460 lung is 0.00131 µM; in the test with OVCAR-3 ovarian, 0.685 µM; in the test on RPMI-8226 leukemia, 0.00102 µM; in the test with SK-MEL-5 melanoma it was 1.35 µM. For the same compound, the TGI in the test on 786-0 renal, in the test on CCRF-CEM leukemia, with DU-145 prostate, with EKVX NSCLC, in the test with IGROV1 ovarian and in the test with NCI-H23 lung was more than 10 µM in each case. Moreover, the TGI in the test on NCI-H460 lung, in the test on OVCAR-3 ovarian, in the test with RPMI-8226 leukemia and in the test with SK-MEL-5 melanoma was more than 10 µM each time.

Regarding `COC(=O)NC1C(C)OC(OC2C/C=C(/C)C3C=CC4C(OC5CC(OC6CCC(OC7CC(O)C(OC8CCC(O)C(C)O8)C(C)O7)C(C)O6)C(OC(C)=O)C(C)O5)C(C)CC(C)C4C3(C)/C(O)=C3/C(=O)OC4(CC(C=O)=CC(O)C4/C=C\2C)C3=O)CC1(C)[N+](=O)[O-]` (centres undefined), the GI50 in the test with 786-0 renal is 0.21 µM; in the test on CCRF-CEM leukemia, 0.0687 µM; in the test with EKVX NSCLC, 0.367 µM; with IGROV1 ovarian, 1.47 µM; with NCI-H23 lung, 0.171 µM; in the test on NCI-H460 lung, 0.319 µM. The GI50 in the test on OVCAR-3 ovarian is 0.484 µM; with RPMI-8226 leukemia, 0.225 µM; in the test on SK-MEL-5 melanoma, 0.2 µM. For the same compound, the TGI with 786-0 renal was 2.2 µM and 0.518 µM; in the test on CCRF-CEM leukemia it was 4.86 µM and 1.78 µM; in the test with DU-145 prostate, 5.07 µM; with EKVX NSCLC, 5.49 µM and 0.864 µM; in the test on IGROV1 ovarian, 8.43 µM and 3.15 µM; in the test with NCI-H23 lung, 2.22 µM and 0.403 µM. In addition, the TGI in the test with NCI-H460 lung is 2.17 µM and 2.14 µM; in the test on OVCAR-3 ovarian, 2.7 µM and 2.12 µM; with RPMI-8226 leukemia it was 5.99 µM and 0.705 µM; with SK-MEL-5 melanoma, 1.95 µM and 0.511 µM.

In the case of `Clc1nccc2c(-c3csc(-c4c[nH]c5ccc(Br)cc45)n3)c[nH]c12`, the GI50 was 1.37 µM in the test with 786-0 renal; 3.16 µM in the test on CCRF-CEM leukemia; 1.76 µM in the test on DU-145 prostate; 3.11 µM in the test on EKVX NSCLC; 2.51 µM with IGROV1 ovarian; 2.42 µM in the test on NCI-H23 lung. Further, the GI50 in the test with NCI-H460 lung was 2.16 µM; in the test on OVCAR-3 ovarian, 3.45 µM; in the test with RPMI-8226 leukemia, 4.03 µM; in the test on SK-MEL-5 melanoma it was 2.61 µM. For the same compound, the TGI in the test with 786-0 renal stood at 2.93 µM; in the test on CCRF-CEM leukemia, 20.9 µM; in the test with DU-145 prostate it was 14 µM; in the test on EKVX NSCLC, 12.4 µM; in the test with IGROV1 ovarian, 15.4 µM; with NCI-H23 lung, 8.57 µM. Also, the total growth inhibition concentration (TGI) worked out at 4.58 µM with NCI-H460 lung, 15 µM in the test with OVCAR-3 ovarian, 39 µM in the test with RPMI-8226 leukemia and 6.42 µM in the test on SK-MEL-5 melanoma.

On to `Oc1ccc(Cl)cc1C(c1cc(Cl)ccc1O)C(Cl)(Cl)Cl`, for which the GI50 in the test on 786-0 renal is 2 µM; in the test with CCRF-CEM leukemia, 3.2 µM; in the test on DU-145 prostate, 1.77 µM; in the test on EKVX NSCLC it was 1.84 µM; in the test on IGROV1 ovarian it was 1.63 µM; in the test on NCI-H23 lung, 1.73 µM. The GI50 is 2.13 µM in the test on NCI-H460 lung, 1.92 µM in the test on OVCAR-3 ovarian, 2.72 µM in the test on RPMI-8226 leukemia and 1.58 µM with SK-MEL-5 melanoma. The total growth inhibition concentration (TGI) worked out at 3.99 µM with 786-0 renal; 8.02 µM with CCRF-CEM leukemia; 3.42 µM in the test on DU-145 prostate; 5.8 µM in the test on EKVX NSCLC; 5.67 µM in the test with IGROV1 ovarian; 3.96 µM with NCI-H23 lung. Also, the concentration for total growth inhibition (TGI) in the test on NCI-H460 lung came out at 4.58 µM; in the test on OVCAR-3 ovarian, 4.23 µM; in the test with RPMI-8226 leukemia it was 8.4 µM; in the test with SK-MEL-5 melanoma, 3.05 µM.

Take `CN=C(N)c1ccc(N=C(N)c2ccc(-c3ccc(C(N)=Nc4ccc(C(N)=NC)cc4)cc3)cc2)cc1`: the GI50 in the test with 786-0 renal is more than 100 µM; in the test on CCRF-CEM leukemia, more than 100 µM; in the test on DU-145 prostate, 41.2 µM; in the test on EKVX NSCLC, more than 100 µM; with IGROV1 ovarian it was 38.6 µM; in the test on NCI-H23 lung it was more than 100 µM. In addition, the GI50 with NCI-H460 lung is 55.8 µM; with OVCAR-3 ovarian it was more than 100 µM; in the test with RPMI-8226 leukemia, 46.5 µM; with SK-MEL-5 melanoma it was 33.6 µM. The TGI in the test with 786-0 renal, with CCRF-CEM leukemia, with DU-145 prostate, with EKVX NSCLC, with IGROV1 ovarian and in the test with NCI-H23 lung was more than 100 µM throughout. The TGI in the test with NCI-H460 lung, in the test with OVCAR-3 ovarian, in the test on RPMI-8226 leukemia and in the test with SK-MEL-5 melanoma was more than 100 µM throughout.

What is called GI50 is the concentration that inhibits growth by half. The TGI is the concentration giving total growth inhibition. A low value points to more potent growth arrest.
